Read-outs that look alike come from different tables or passages of the source.
Legend:
[1] = in vivo
Protocol: Patients with histologically proven epithelial ovarian cancer with bidimensionally measurable disease were candidates for the study.
All patients received subsequent cycles of therapy on the general medical oncology in-patient ward.
A G-CSF dose of 10 μg/kg/day was used. […] This was determined by checking WBC and platelet counts on a twice weekly basis.
All toxicities were graded according to the NCI-CTEP criteria, with the exception of peripheral neuropathy which was graded as described previously herein.
Dose limiting toxicity (DLT) was defined as any of the following criteria occurring in two of three patients treated at a given dose level: (1) reversible non-hematologic toxicity of at least grade 3; (2) irreversible non-hematologic toxicity of at least grade 2; or (3) the persistence of a nadir with an absolute granulocyte count of less than 500 cells/mm^3 or platelet count of less than 25,000/mm^3 for five days or more.

[2] = Text: A total of 47 patients were included in this study. All patients had recurrent advanced stage epithelial ovarian cancer confirmed on histologic review at the Laboratory of Pathology, National Cancer Institute (NCI). Borderline, mixed, and germ cell histologies were excluded.
Pretreatment evaluation consisted of a physical examination, laboratory studies with CA-125, radiographic evaluation by CT scan, baseline electromyogram with nerve conduction velocity studies (EMG/NCV), creatinine clearance, chest radiograph, and EKG. On-study staging was completed within two weeks of starting therapy. Physical examination and laboratory evaluations were repeated with every cycle, except for CBC which was evaluated twice weekly. Patients underwent restaging every two cycles (i.e., every 6 weeks), which included the repetition of any radiographic studies that were abnormal upon entry. EMG/NCV studies were repeated as indicated to determine the presence of any progressive neurologic toxicity.
The G-CSF was supplied to the Division of Cancer Treatment by Amgen, Inc. (Thousand Oaks, Calif.). This G-CSF administration continued until the absolute granulocyte count of the patient was greater than 1500/μl for two consecutive days after the nadir (i.e., the total count for the two days was at least 3000/μl ) or until the total white blood cell count was greater than 30,000/μl. Patients with responding disease or stable disease continued on the study and were reevaluated at two cycle intervals.
Patients manifesting second or third degree heart block had remaining cycles given in the intensive care unit with appropriate interventions. Antiemetics were given as needed.
More specifically, this was undertaken by increasing the dose of G-CSF administered on the next treatment cycle.
The particulars pertaining to the flexible G-CSF dosage regimen are as follows. […] The dose of G-CSF was reduced by 5 μg/kg/day if severe bone pain occurred at these higher G-CSF dosage levels, i.e., at levels greater than or equal to 10 μg/kg/day.

[3] = in vivo; cited from earlier work
[4] = female, human, in vivo, 1 cycle
[5] = female, human, in vivo, 21 days (per cycle)

CC(=O)O[C@H]1C(=O)[C@@]2(C)[C@H]([C@H](OC(=O)c3ccccc3)[C@]3(O)C[C@H](OC(=O)[C@H](O)[C@@H](NC(=O)c4ccccc4)c4ccccc4)C(C)=C1C3(C)C)[C@]1(OC(C)=O)CO[C@@H]1C[C@@H]2O [Taxol, taxol]
Dose at which dose limiting toxicity (DLT) was reached ([1]; female, human): 300 mg/m2/21 days
Duration of granulocytopenia occurring in spite of G-CSF support ([1]; female, human): less than 5 days
Persistence of neurologic symptoms beyond the peak ([1]; female, human): 1 to 2 weeks
Persistence of symptoms of grade 3 neuropathy ([1]; female, human): up to 6 months
Time of nadir heart rate into therapy, range ([1]; female, human): 1 to 21 h
Mean nadir heart rate (±SEM) ([1]; female, human, 1 cycle): 60±11 bpm
Nadir heart rate, range ([1]; female, human, 1 cycle): 46-84 bpm
Number of individuals whose heart rate fell below 60 bpm ([1]; female, human, 1 cycle): 10
Mean nadir heart rate ([1]; female, human, 2 cycle): 61±8 bpm
Nadir heart rate, range ([1]; female, human, 2 cycle): 46-75 bpm
Number of individuals whose heart rate fell below 60 bpm ([1]; female, human, 2 cycle): 6
Alopecia and grade 1 to 2 myalgias observed [1]: all patients
Patients in whom mucositis was observed [1]: two
Patients with peripheral neuropathy of grade 3 [1]: three
Alopecia, Grade 1 & 2 ([2]; female, human, in vivo): 38 No. (%)
Bone Pain, Grade 3 & 4 ([2]; female, human, in vivo): 3 (6) No. (%)
Cardiac toxicity, Grade 1 & 2 ([2]; female, human, in vivo): 35 (74) No. (%)
Constitutional toxicity, Grade 1 & 2 ([2]; female, human, in vivo): 43 No. (%)
Constitutional toxicity, Grade 3 & 4 ([2]; female, human, in vivo): 4 (9) No. (%)
Diarrhea, Grade 1 & 2 ([2]; female, human, in vivo): 29 No. (%)
Diarrhea, Grade 3 & 4 ([2]; female, human, in vivo): 2 (4) No. (%)
Hematologic toxicity, Anemia, Grade 1 & 2 ([2]; female, human, in vivo): 17 (47) No. (%)
Hematologic toxicity, Anemia, Grade 3 & 4 ([2]; female, human, in vivo): 30 (47) No. (%)
Hematologic toxicity, Granulocytes, Grade 1 & 2 ([2]; female, human, in vivo): 1 (2) No. (%)
Hematologic toxicity, Granulocytes, Grade 3 & 4 ([2]; female, human, in vivo): 46 (98) No. (%)
Hematologic toxicity, Platelets, Grade 1 & 2 ([2]; female, human, in vivo): 24 (51) No. (%)
Hematologic toxicity, Platelets, Grade 3 & 4 ([2]; female, human, in vivo): 19 (40) No. (%)
Hypersensitivity Reactions, Grade 1 & 2 ([2]; female, human, in vivo): 31 (66) No. (%)
Hypersensitivity Reactions, Grade 3 & 4 ([2]; female, human, in vivo): 2 (4) No. (%)
Median time of neutrophil nadir ([2]; female, human, in vivo): 7 days
Mucositis, Grade 1 & 2 ([2]; female, human, in vivo): 31 (66) No. (%)
Mucositis, Grade 3 & 4 ([2]; female, human, in vivo): 3 (6) No. (%)
Myalgias, Grade 1 & 2 ([2]; female, human, in vivo): 43 No. (%)
Neurologic toxicity, Grade 1 & 2 ([2]; female, human, in vivo): 36 (77) No. (%)
Neurologic toxicity, Grade 3 & 4 ([2]; female, human, in vivo): 3 (6) No. (%)
Patients who continued at the starting dosage combination throughout therapy ([2]; female, human, in vivo): 45%
Patients who continued on that dose combination ([2]; female, human, in vivo): 12 patients
Patients who required red blood cell transfusions ([2]; female, human, in vivo): 55%
Patients with Mobitz I block ([2]; female, human, in vivo): 4%
Patients with Mobitz II block ([2]; female, human, in vivo): 4%
Patients with dose reduction for taxol-induced peripheral neuropathy ([2]; female, human, in vivo): 3 patients
Patients with first degree atrioventricular block ([2]; female, human, in vivo): 4%
Patients with grade 3 and 4 hematologic toxicities ([2]; female, human, in vivo): 98%
Patients with mild ototoxicity ([2]; female, human, in vivo): 11%
Patients with myalgias and arthralgias (grades 1 and 2) ([2]; female, human, in vivo): less than 50%
Time of neutrophil nadir, range ([2]; female, human, in vivo): 5 to 11 days
Vomiting, Grade 1 & 2 ([2]; female, human, in vivo): 23 No. (%)
Median nadir heart rate [2, 4]: 52 bpm
Nadir heart rate, range [2, 4]: 38-59 bpm
Patients with asymptomatic sinus bradycardia [2, 4]: 34%
Cycles associated with neutropenia [2, 5]: 24%
Cycles complicated by fever and neutropenia [2, 5]: 10%
Episodes of complete heart block ([2]; in vivo): No episodes
Patients with hypersensitivity reactions ([2]; in vivo): Two
Patients with rapid atrial fibrillation requiring digitalization ([2]; in vivo): one
Patients with supraventricular tachycardia ([2]; in vivo): two
Treatment related death due to polymicrobial sepsis ([2]; one of 47 patients): 2%
Taxol dosage level above which severe neurotoxicity (peripheral neuropathy) is experienced [3]: above 300 mg/m^2/ 21 days
